The values that follow come from ChEMBL document CHEMBL6182858, “Dichloromethyl-Containing Derivatives from Streptomyces agglomeratus 5-2-6, a Soil Bacterium Isolated from the Qinghai-Tibet Plateau” (J Nat Prod, 2025).

The test system of this assay is Bacillus thuringiensis. In words: Antibacterial activity against Bacillus thuringiensis assessed as inhibition of bacterial growth by agar plate method. In kind it is functional, organism-based.
Take `CC[C@H](O)/C(C)=C/[C@@H](O)c1cc(C(Cl)Cl)cc(=O)o1`: the Activity result was “Not active; Detectable Activity Not Observed”.

Take `CC/C=C(\C)[C@@H](O)[C@@H](O)C1=CC(=O)/C(=C/C(Cl)Cl)O1`: the Activity entry is “Moderate_effect”.

As for `CC[C@@H](O)[C@](C)(O)/C=C/C=C\[C@H](O)C(Cl)Cl`, the Activity result is “Not active; Detectable Activity Not Observed”.

Consider `CC/C=C(\C)[C@@H](O)[C@@H](O)C1=CC(=O)/C(=C\C(Cl)Cl)O1`, for which the Activity result is “Moderate_effect”.

For the compound `O=c1cc(C(Cl)Cl)cc(CO)o1`, the Activity result was “Not active; Detectable Activity Not Observed”.

`CC[C@@H](O)[C@@](C)(O)/C=C/C=C\[C@H](O)C(Cl)Cl`: the Activity result is “Not active; Detectable Activity Not Observed”.

On to `CC[C@@H](O)/C(C)=C/[C@@H](O)c1cc(C(Cl)Cl)cc(=O)o1`, for which the Activity result was “Not active; Detectable Activity Not Observed”.

Consider `CC/C=C(\C)[C@@H](O)[C@@H](O)c1cc(C(Cl)Cl)cc(=O)o1`, for which the Activity entry was “Not active; Detectable Activity Not Observed”.
